What was measured:
Details in all cases: synthetic library passage 3, intravenous, relative to wild-type AAV9
brain [1] = experiment: NGS fold enrichment of synthetic library (passage 3) in C57Bl/6 mice, first cross-species screen; type: in vivo
Procedure, shortened: (§1)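 Fold enrichment versus wild-type AAV9 was derived by NGS of RT-PCR-amplified RNA from nervous tissue, collected e.g. 28 days after IV dosing […]. The library (passage 3) was given to two NHPs aged 2-4 years and to 6-8-week BALB/c and C57Bl/6 mice (n=3 each).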

[2] = system: brain, spinal cord, and DRG of the NHPs; experiment: NGS fold enrichment of synthetic library (passage 3) in NHPs, first cross-species screen; type: in vivo, cynomolgus macaques (Macaca fascicularis)
Procedure, shortened: as §1

brain [3] = experiment: NGS fold enrichment of synthetic library (passage 3) in BALB/c mice, first cross-species screen; type: in vivo
Procedure, shortened: as §1

[4] = RNA from brain of C57Bl/6 mice, NGS
[5] = RNA from spinal cord of NHPs, NGS
[6] = RNA from brain of BALB/c mice, NGS

Row | Sequence | Fold enrichment over AAV9 in the brain of Mice (C57Bl/6) (brain [1]; [4]) | Fold enrichment over AAV9 in the brain of NHPs ([2]; RNA from brain of NHPs, NGS) | Fold enrichment over AAV9 in the spinal cord of NHPs [2, 5] | Fold enrichment over AAV9 in the brain of Mice (BALB/c) (brain [3]; [6]) | Fold enrichment over AAV9 in the brain of Mice (C57Bl/6) (brain [1]; RNA NGS, brain of C57Bl/6 mice) | Fold enrichment over AAV9 in the brain of NHPs ([2]; RNA NGS, brain of NHPs) | Fold enrichment over AAV9 in the spinal cord of NHPs ([2]; RNA NGS, spinal cord of NHPs) | Fold enrichment over AAV9 in the brain of Mice (BALB/c) (brain [3]; RNA NGS, brain of BALB/c mice)
1 | GLGSKNPSGQNQQT | 1.184 fold | 1.147 fold | 1.629 fold | 0.424 fold |  |  |  | 
2 | GSGPQSHTGQNQQT |  |  |  |  | 0.958 fold | 1.757 fold | 9.490 fold | 0.447 fold
3 | GSGQTQVLKSNQQT |  |  |  |  | 1.599 fold | 1.640 fold | 3.031 fold | 0.975 fold
4 | GSLFLATGGQNQQT | 0.775 fold | 1.220 fold | 0.000 fold | 0.485 fold |  |  |  | 
5 | GSGQNQYSQSSMQT |  |  |  |  | 0.375 fold | 1.494 fold | 4.278 fold | 0.309 fold
6 | GIARTTISGQNQQT |  |  |  |  | 0.819 fold | 1.078 fold | 1.783 fold | 0.330 fold
7 | GAFHLAASGQNQQT | 0.994 fold | 1.369 fold | 18.165 fold | 0.775 fold |  |  |  | 
8 | GSGSTHSKAQNQQT | 0.921 fold | 1.410 fold | 0.515 fold | 0.801 fold |  |  |  | 
9 | GSGQSHLHTGNQQT |  |  |  |  | 0.721 fold | 1.096 fold | 2.584 fold | 0.295 fold
10 | GSGQNQQHANLNQT |  |  |  |  | 0.416 fold | 1.410 fold | 0.094 fold | 0.544 fold
11 | GSRTVPVYGQNQQT | 1.226 fold | 1.371 fold | 0.363 fold | 0.969 fold |  |  |  | 
12 | GSGQNQQKQNHGNT |  |  |  |  | 1.538 fold | 1.695 fold | 5.349 fold | 1.340 fold
13 | GSSTRVDSGQNQQT |  |  |  |  | 0.704 fold | 1.584 fold | 2.774 fold | 0.660 fold
14 | GSGQRMADIGNQQT | 0.352 fold | 1.233 fold | 2.539 fold | 0.427 fold |  |  |  | 
15 | GSDFLGTHGQNQQT |  |  |  |  | 1.038 fold | 3.171 fold | 0.348 fold | 0.750 fold
16 | GSGERSISVQNQQT | 0.598 fold | 1.264 fold | 1.619 fold | 0.173 fold |  |  |  | 
17 | GLGSKNHSGQNQQT | 0.825 fold | 1.187 fold | 5.046 fold | 0.224 fold |  |  |  | 
18 | GSGQNQQTSVGFRT |  |  |  |  | 0.648 fold | 1.077 fold | 3.737 fold | 0.534 fold
19 | GSITLIPSGQNQQT |  |  |  |  | 0.326 fold | 3.361 fold | 3.917 fold | 0.435 fold
20 | GSGQNWPALKGQQT | 1.101 fold | 1.284 fold | 2.031 fold | 1.222 fold |  |  |  | 

Row | Sequence | Fold enrichment over AAV9 in the brain of Mice (C57Bl/6) (brain [1]; [4]) | Fold enrichment over AAV9 in the brain of NHPs ([2]; RNA from brain of NHPs, NGS) | Fold enrichment over AAV9 in the spinal cord of NHPs [2, 5] | Fold enrichment over AAV9 in the brain of Mice (BALB/c) (brain [3]; [6]) | Fold enrichment over AAV9 in the brain of Mice (C57Bl/6) (brain [1]; RNA NGS, brain of C57Bl/6 mice) | Fold enrichment over AAV9 in the brain of NHPs ([2]; RNA NGS, brain of NHPs) | Fold enrichment over AAV9 in the spinal cord of NHPs ([2]; RNA NGS, spinal cord of NHPs) | Fold enrichment over AAV9 in the brain of Mice (BALB/c) (brain [3]; RNA NGS, brain of BALB/c mice)
21 | GSGQNQAVHNKSQT |  |  |  |  | 1.465 fold | 1.956 fold | 3.791 fold | 1.083 fold
22 | GSSSPGASGQNQQT |  |  |  |  | 1.378 fold | 1.717 fold | 1.244 fold | 0.660 fold
23 | GSSGHRESGQNQQT |  |  |  |  | 0.641 fold | 1.048 fold | 4.398 fold | 0.691 fold
24 | GTASTYNSGQNQQT |  |  |  |  | 0.250 fold | 1.099 fold | 2.560 fold | 0.625 fold
25 | GSGQTHGGQHNQQT |  |  |  |  | 1.448 fold | 2.125 fold | 12.251 fold | 1.098 fold
26 | GSGSQHSKAQNQQT | 0.638 fold | 1.168 fold | 0.312 fold | 0.916 fold |  |  |  | 
27 | GSGLLHRAQQNQQT |  |  |  |  | 1.583 fold | 1.569 fold | 0.724 fold | 0.646 fold
28 | GRGVQQKLQQNQQT |  |  |  |  | 1.974 fold | 1.817 fold | 0.000 fold | 0.823 fold
29 | GSDQNQQTMSSTRT |  |  |  |  | 1.306 fold | 1.003 fold | 2.428 fold | 0.835 fold
30 | GANMGHVSGQNQQT |  |  |  |  | 1.302 fold | 2.020 fold | 0.810 fold | 1.138 fold
31 | GSGQNQQSTGTSRT |  |  |  |  | 1.209 fold | 1.103 fold | 4.054 fold | 0.935 fold
32 | GGVLVGGSGQNQQT |  |  |  |  | 1.527 fold | 2.778 fold | 0.178 fold | 0.688 fold
33 | GSGQLSVPYDNQQT |  |  |  |  | 0.622 fold | 1.521 fold | 0.000 fold | 0.111 fold
34 | GGITWTDSGQNQQT |  |  |  |  | 1.472 fold | 1.462 fold | 4.535 fold | 0.468 fold
35 | GVAFIGSSGQNQQT |  |  |  |  | 0.744 fold | 1.043 fold | 0.000 fold | 0.648 fold
36 | GSLDLGRSGQNQQT | 1.002 fold | 1.160 fold | 3.283 fold | 0.505 fold |  |  |  | 
37 | GAGSIIPSGQNQQT |  |  |  |  | 0.595 fold | 2.129 fold | 7.164 fold | 0.249 fold
38 | GSGQSYDMRGNQQT | 0.588 fold | 1.248 fold | 0.567 fold | 0.368 fold |  |  |  | 
39 | GSGQNQQTRLVDLT |  |  |  |  | 1.268 fold | 2.342 fold | 9.348 fold | 0.490 fold
40 | GSGYKAARPQNQQT |  |  |  |  | 1.418 fold | 1.803 fold | 0.000 fold | 0.337 fold
